Assay results as given in ChEMBL document CHEMBL1955745, “Synthesis and in vitro antitumor activity of asperphenamate derivatives as autophagy inducer” (Bioorg Med Chem Lett, 2012).
Converted amounts (≈) assume the structure as drawn.

What was measured:
[1] = tested on: Bel-7402; experiment: Antiproliferative activity against human Bel7402 cells after 3 days by MTT assay; format: functional, cell-based; conditions: Bel-7402, 72 h
[2] = tested on: MCF7; experiment: Antiproliferative activity against human MCF7 cells after 3 days by MTT assay; format: functional, cell-based; conditions: MCF7, 72 h
[3] = tested on: HeLa; experiment: Antiproliferative activity against human HeLa cells after 3 days by MTT assay; format: functional, cell-based; conditions: 72 h
[4] = Thermodynamic solubility of the compound in phosphate buffer at pH 7.4 at 1 mg after 10 mins by HPLC -UV analysis; format: physicochemical; conditions: read-out: Therm_solubility

SMILES	IC50 [1] [µM]	IC50 [2] [µM]	IC50 [3] [µM]	solubility thermodynamic at 10 min [4] [µg/mL]
O=C(N[C@H](COC(=O)[C@H](Cc1ccccc1)NC(=O)c1cccc(O)c1)Cc1ccccc1)c1ccccc1	> 100	> 100	> 100	1590 (≈ 3040 µM)
O=C(N[C@H](COC(=O)[C@@H](Cc1ccccc1)NC(=O)c1ccc(O)cc1)Cc1ccccc1)c1ccccc1	68.7	53.2	59	302 (≈ 578 µM)
O=C(N[C@H](COC(=O)[C@H](Cc1ccccc1)NC(=O)c1ccccc1OCc1ccccc1)Cc1ccccc1)c1ccccc1	> 100	> 100	> 100	26.3 (≈ 43 µM)
O=C(N[C@@H](COC(=O)[C@H](Cc1ccccc1)NC(=O)c1ccc(O)cc1)Cc1ccccc1)c1ccccc1	55.6	59.7	62.9	–
C[C@H](COC(=O)[C@@H](Cc1ccccc1)NC(=O)c1ccccc1)NC(=O)c1ccccc1	> 100	> 100	> 100	–
O=C(N[C@@H](COC(=O)[C@@H](Cc1ccccc1)NC(=O)c1ccc(O)cc1)Cc1ccccc1)c1ccccc1	51.4	32.8	52.1	–
O=C(N[C@@H](COC(=O)[C@@H](Cc1ccccc1)NC(=O)c1ccccc1O)Cc1ccccc1)c1ccccc1	38.1	36.3	42.9	–
O=C(N[C@@H](COC(=O)[C@H](Cc1ccccc1)NC(=O)c1ccccc1OCc1ccccc1)Cc1ccccc1)c1ccccc1	71.7	85.8	72.5	–
O=C(Cc1ccc(O)cc1)N[C@@H](Cc1ccccc1)C(=O)OC[C@H](Cc1ccccc1)NC(=O)c1ccccc1	94.4	79.6	62.7	109 (≈ 204 µM)
O=C(Cc1ccccc1O)N[C@@H](Cc1ccccc1)C(=O)OC[C@H](Cc1ccccc1)NC(=O)c1ccccc1	> 100	> 100	> 100	349 (≈ 650 µM)
C[C@H](NC(=O)c1ccccc1)C(=O)OC[C@@H](Cc1ccccc1)NC(=O)c1ccccc1	> 100	> 100	> 100	–
O=C(Cc1ccc(O)cc1)N[C@@H](Cc1ccccc1)C(=O)OC[C@@H](Cc1ccccc1)NC(=O)c1ccccc1	> 100	> 100	> 100	–
C[C@H](NC(=O)c1ccccc1)C(=O)OC[C@H](Cc1ccccc1)NC(=O)c1ccccc1	> 100	> 100	> 100	329 (≈ 764 µM)
C[C@H](COC(=O)[C@H](Cc1ccccc1)NC(=O)c1ccccc1)NC(=O)c1ccccc1	> 100	> 100	> 100	–
O=C(N[C@H](COC(=O)[C@@H](Cc1ccccc1)NC(=O)c1ccccc1O)Cc1ccccc1)c1ccccc1	14.5	11.9	15.2	77.4 (≈ 148 µM)
CC(=O)N[C@H](Cc1ccccc1)C(=O)OC[C@@H](Cc1ccccc1)NC(=O)c1ccccc1	> 100	> 100	> 100	–
O=C(Cc1ccccc1O)N[C@@H](Cc1ccccc1)C(=O)OC[C@@H](Cc1ccccc1)NC(=O)c1ccccc1	33.6	39.2	27.9	–
CC(=O)N[C@@H](COC(=O)[C@@H](Cc1ccccc1)NC(=O)c1ccccc1)Cc1ccccc1	> 100	> 100	> 100	–
CC(=O)N[C@@H](Cc1ccccc1)C(=O)OC[C@@H](Cc1ccccc1)NC(=O)c1ccccc1	> 100	> 100	> 100	–

SMILES	IC50 [1] [µM]	IC50 [2] [µM]	IC50 [3] [µM]	solubility thermodynamic at 10 min [4] [µg/mL]
O=C(N[C@@H](COC(=O)[C@H](Cc1ccccc1)NC(=O)c1ccccc1O)Cc1ccccc1)c1ccccc1	41.2	42.4	42.5	–
O=C(Cc1ccccc1O)N[C@H](Cc1ccccc1)C(=O)OC[C@@H](Cc1ccccc1)NC(=O)c1ccccc1	29.7	18.4	19.5	–
O=C(Cc1ccc(O)cc1)N[C@H](Cc1ccccc1)C(=O)OC[C@H](Cc1ccccc1)NC(=O)c1ccccc1	> 100	> 100	> 100	295 (≈ 550 µM)
O=C(N[C@H](COC(=O)[C@H](Cc1ccccc1)NC(=O)c1ccccc1O)Cc1ccccc1)c1ccccc1	64.8	49	30.4	18.2 (≈ 34.7 µM)
O=C(Cc1ccccc1OCc1ccccc1)N[C@H](Cc1ccccc1)C(=O)OC[C@H](Cc1ccccc1)NC(=O)c1ccccc1	37.8	28.8	25.5	135 (≈ 216 µM)
O=C(N[C@H](COC(=O)[C@H](Cc1ccccc1)NC(=O)c1ccc(O)cc1)Cc1ccccc1)c1ccccc1	> 100	> 100	> 100	370 (≈ 709 µM)
O=C(Cc1ccc(O)cc1)N[C@H](Cc1ccccc1)C(=O)OC[C@@H](Cc1ccccc1)NC(=O)c1ccccc1	70.9	52.5	42.8	–
O=C(N[C@@H](COC(=O)[C@@H](Cc1ccccc1)NC(=O)c1ccccc1)Cc1ccccc1)c1ccccc1	> 100	> 100	> 100	–
CC(=O)N[C@H](Cc1ccccc1)C(=O)OC[C@H](Cc1ccccc1)NC(=O)c1ccccc1	69.8	79.9	56.4	207 (≈ 466 µM)
CC(=O)N[C@@H](Cc1ccccc1)C(=O)OC[C@H](Cc1ccccc1)NC(=O)c1ccccc1	> 100	88.4	> 100	560 (≈ 1260 µM)
O=C(N[C@H](COC(=O)[C@H](Cc1ccccc1)NC(=O)c1ccccc1)Cc1ccccc1)c1ccccc1 [ASPERPHENAMATE]	> 100	94.8	> 100	8.85 (≈ 17.5 µM)
O=C(N[C@H](COC(=O)[C@@H](Cc1ccccc1)NC(=O)c1ccccc1)Cc1ccccc1)c1ccccc1	> 100	> 100	> 100	3.21 (≈ 6.34 µM)
O=C(N[C@@H](COC(=O)[C@@H](Cc1ccccc1)NC(=O)c1ccccc1OCc1ccccc1)Cc1ccccc1)c1ccccc1	41.1	70.3	54.4	–
O=C(N[C@@H](COC(=O)[C@H](Cc1ccccc1)NC(=O)c1cccc(O)c1)Cc1ccccc1)c1ccccc1	> 100	> 100	> 100	–
O=C(Cc1ccccc1OCc1ccccc1)N[C@@H](Cc1ccccc1)C(=O)OC[C@@H](Cc1ccccc1)NC(=O)c1ccccc1	70.6	28.2	58.8	–
C[C@@H](NC(=O)c1ccccc1)C(=O)OC[C@@H](Cc1ccccc1)NC(=O)c1ccccc1	> 100	> 100	> 100	–
O=C(N[C@@H](COC(=O)[C@@H](Cc1ccccc1)NC(=O)c1cccc(O)c1)Cc1ccccc1)c1ccccc1	49.9	55.3	63.4	–
CC(=O)N[C@@H](COC(=O)[C@H](Cc1ccccc1)NC(=O)c1ccccc1)Cc1ccccc1	> 100	> 100	> 100	–
O=C(N[C@@H](COC(=O)[C@H](Cc1ccccc1)NC(=O)c1ccccc1)Cc1ccccc1)c1ccccc1	> 100	> 100	> 100	–
